Measured values: PMC3399817 (PLoS ONE, 2012)

What was measured:
Assay in all cases: KINOMEscan
Type in all cases: binding
ALK = target: T1, ALK (Homo sapiens, UniProt Q9UM73); settings: 1 uM
T1 construct: purchased Ambit KINOMEscan (DiscoverX)
Description: (§1) First, we used Ambit's KINOMEscan™ technology to identify those kinases that are inhibited for substrate binding by the compounds, all assayed at 1 μM. Second, we used Invitrogen's SelectScreen® Biochemical Kinase Profiling Service to determine the in vitro IC50s for the compounds against specific kinases.

CAMK4 = target: T2, CAMK4 (Homo sapiens, UniProt Q16566); settings: CAMK4, 1 uM
T2 construct: purchased Ambit KINOMEscan (DiscoverX)
Description: as §1

CIT = target: T3, CIT (Homo sapiens, UniProt O14578); settings: 1 uM
T3 construct: purchased Ambit KINOMEscan (DiscoverX)
Description: as §1

DCAMKL1 = target: T4, DCAMKL1 (Homo sapiens, UniProt O15075); settings: DCAMKL1, 1 uM
T4 construct: purchased Ambit KINOMEscan (DiscoverX)
Description: as §1

DLK = target: T5, DLK (Homo sapiens, UniProt Q12852); settings: 1 uM
T5 construct: purchased Ambit KINOMEscan (DiscoverX)
Description: as §1

DYRK1A = target: T6, DYRK1A (Homo sapiens, UniProt Q13627); settings: 1 uM
T6 construct: purchased Ambit KINOMEscan (DiscoverX)
Description: as §1

DYRK1B = target: T7, DYRK1B (Homo sapiens, UniProt Q9Y463); settings: 1 uM
T7 construct: purchased Ambit KINOMEscan (DiscoverX)
Description: as §1

EPHB1 = target: T8, EPHB1 (Homo sapiens, UniProt P54762); settings: EPHB1, 1 uM
T8 construct: purchased Ambit KINOMEscan (DiscoverX)
Description: as §1

ERK8 = target: T9, ERK8 (Homo sapiens, UniProt Q8TD08); settings: ERK8, 1 uM
T9 construct: purchased Ambit KINOMEscan (DiscoverX)
Description: as §1

FGFR3(G697C) = target: T10, FGFR3(G697C) (Homo sapiens, UniProt P22607, G697C); settings: 1 uM
T10 construct: purchased Ambit KINOMEscan (DiscoverX)
Description: as §1

FLT3(N841I) = target: T11, FLT3(N841I) (Homo sapiens, UniProt P36888, N841I); settings: 1 uM
T11 construct: purchased Ambit KINOMEscan (DiscoverX)
Description: as §1

FLT4 = target: T12, FLT4 (Homo sapiens, UniProt P35916); settings: FLT4, 1 uM
T12 construct: purchased Ambit KINOMEscan (DiscoverX)
T12 sequence (P35916 25-1363): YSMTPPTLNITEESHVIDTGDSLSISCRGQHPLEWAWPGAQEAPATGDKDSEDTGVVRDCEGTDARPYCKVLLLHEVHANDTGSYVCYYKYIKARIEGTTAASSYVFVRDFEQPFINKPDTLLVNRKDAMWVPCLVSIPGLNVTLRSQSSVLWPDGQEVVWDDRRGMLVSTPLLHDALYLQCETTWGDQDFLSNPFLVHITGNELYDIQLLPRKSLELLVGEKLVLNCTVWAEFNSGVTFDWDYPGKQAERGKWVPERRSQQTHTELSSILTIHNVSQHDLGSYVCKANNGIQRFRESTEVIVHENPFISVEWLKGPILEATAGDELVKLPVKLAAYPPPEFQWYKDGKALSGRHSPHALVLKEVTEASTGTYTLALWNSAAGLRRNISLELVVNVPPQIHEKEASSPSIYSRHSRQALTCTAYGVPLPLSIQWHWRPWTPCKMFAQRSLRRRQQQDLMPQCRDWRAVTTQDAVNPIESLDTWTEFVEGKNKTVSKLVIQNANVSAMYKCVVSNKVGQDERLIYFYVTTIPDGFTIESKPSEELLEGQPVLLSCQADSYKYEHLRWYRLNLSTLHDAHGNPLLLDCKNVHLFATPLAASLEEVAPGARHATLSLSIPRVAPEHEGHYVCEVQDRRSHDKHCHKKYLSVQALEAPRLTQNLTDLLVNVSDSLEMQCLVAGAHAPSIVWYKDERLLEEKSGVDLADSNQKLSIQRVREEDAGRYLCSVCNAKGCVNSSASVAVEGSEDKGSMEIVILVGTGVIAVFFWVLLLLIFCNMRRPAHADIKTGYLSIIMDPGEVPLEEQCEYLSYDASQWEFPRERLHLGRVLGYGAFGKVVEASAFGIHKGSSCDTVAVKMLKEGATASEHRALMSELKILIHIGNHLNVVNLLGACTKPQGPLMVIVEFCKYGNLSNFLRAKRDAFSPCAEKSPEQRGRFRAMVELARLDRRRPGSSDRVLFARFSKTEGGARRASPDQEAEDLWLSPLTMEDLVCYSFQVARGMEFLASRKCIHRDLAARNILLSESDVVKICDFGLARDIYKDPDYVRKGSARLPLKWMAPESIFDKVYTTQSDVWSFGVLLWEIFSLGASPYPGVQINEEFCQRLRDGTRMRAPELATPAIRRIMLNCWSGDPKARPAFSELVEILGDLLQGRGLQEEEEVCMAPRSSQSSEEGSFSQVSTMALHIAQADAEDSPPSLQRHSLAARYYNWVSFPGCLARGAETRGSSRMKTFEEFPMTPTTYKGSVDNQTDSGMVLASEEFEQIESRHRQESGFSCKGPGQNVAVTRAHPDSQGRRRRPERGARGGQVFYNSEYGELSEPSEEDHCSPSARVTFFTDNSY
Description: as §1

GRK7 = target: T13, GRK7 (Homo sapiens, UniProt Q8WTQ7); settings: GRK7, 1 uM
T13 construct: purchased Ambit KINOMEscan (DiscoverX)
T13 sequence (Q8WTQ7 whole entry): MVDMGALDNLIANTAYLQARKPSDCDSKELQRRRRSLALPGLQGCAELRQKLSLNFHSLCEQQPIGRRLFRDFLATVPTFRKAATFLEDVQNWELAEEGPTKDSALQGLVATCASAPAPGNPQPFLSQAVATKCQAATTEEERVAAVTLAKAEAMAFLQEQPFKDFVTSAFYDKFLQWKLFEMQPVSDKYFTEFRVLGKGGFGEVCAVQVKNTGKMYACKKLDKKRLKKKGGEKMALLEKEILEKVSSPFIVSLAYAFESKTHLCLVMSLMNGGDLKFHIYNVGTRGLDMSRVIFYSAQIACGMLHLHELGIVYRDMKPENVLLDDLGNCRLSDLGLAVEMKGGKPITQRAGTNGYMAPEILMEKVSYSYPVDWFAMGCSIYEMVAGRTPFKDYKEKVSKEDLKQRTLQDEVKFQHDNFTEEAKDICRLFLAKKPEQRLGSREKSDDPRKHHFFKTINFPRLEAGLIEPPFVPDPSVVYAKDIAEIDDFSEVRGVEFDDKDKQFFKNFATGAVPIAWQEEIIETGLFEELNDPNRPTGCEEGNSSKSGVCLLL
Description: as §1

IKK-beta = target: T14, IKK-beta (Homo sapiens, UniProt O14920); settings: 1 uM
T14 construct: purchased Ambit KINOMEscan (DiscoverX)
Description: as §1

JNK1 = target: T15, JNK1 (Homo sapiens, UniProt P45983); settings: JNK1, 1 uM
T15 construct: purchased Ambit KINOMEscan (DiscoverX)
Description: as §1

KIT(V559D,V654A) = target: T16, KIT(V559D,V654A) (Homo sapiens, UniProt P10721, V559D/V654A); settings: 1 uM
T16 construct: purchased Ambit KINOMEscan (DiscoverX)
Description: as §1

LTK = target: T17, LTK (Homo sapiens, UniProt P29376); settings: 1 uM
T17 construct: purchased Ambit KINOMEscan (DiscoverX)
Description: as §1

MARK1 = target: T18, MARK1 (Homo sapiens, UniProt Q9P0L2); settings: MARK1, 1 uM
T18 construct: purchased Ambit KINOMEscan (DiscoverX)
Description: as §1

MARK3 = target: T19, MARK3 (Homo sapiens, UniProt P27448); settings: MARK3, 1 uM
T19 construct: purchased Ambit KINOMEscan (DiscoverX)
Description: as §1

MEK1 = target: T20, MEK1 (Homo sapiens, UniProt Q02750); settings: MEK1, 1 uM
T20 construct: purchased Ambit KINOMEscan (DiscoverX)
Description: as §1

MEK6 = target: T21, MEK6 (Homo sapiens, UniProt P52564); settings: MEK6, 1 uM
T21 construct: purchased Ambit KINOMEscan (DiscoverX)
Description: as §1

MLK2 = target: T22, MLK2 (Homo sapiens, UniProt Q02779); settings: MLK2, 1 uM
T22 construct: purchased Ambit KINOMEscan (DiscoverX)
Description: as §1

MYLK = target: T23, MYLK (Homo sapiens, UniProt Q15746); settings: 1 uM
T23 construct: purchased Ambit KINOMEscan (DiscoverX)
T23 sequence (Q15746 whole entry): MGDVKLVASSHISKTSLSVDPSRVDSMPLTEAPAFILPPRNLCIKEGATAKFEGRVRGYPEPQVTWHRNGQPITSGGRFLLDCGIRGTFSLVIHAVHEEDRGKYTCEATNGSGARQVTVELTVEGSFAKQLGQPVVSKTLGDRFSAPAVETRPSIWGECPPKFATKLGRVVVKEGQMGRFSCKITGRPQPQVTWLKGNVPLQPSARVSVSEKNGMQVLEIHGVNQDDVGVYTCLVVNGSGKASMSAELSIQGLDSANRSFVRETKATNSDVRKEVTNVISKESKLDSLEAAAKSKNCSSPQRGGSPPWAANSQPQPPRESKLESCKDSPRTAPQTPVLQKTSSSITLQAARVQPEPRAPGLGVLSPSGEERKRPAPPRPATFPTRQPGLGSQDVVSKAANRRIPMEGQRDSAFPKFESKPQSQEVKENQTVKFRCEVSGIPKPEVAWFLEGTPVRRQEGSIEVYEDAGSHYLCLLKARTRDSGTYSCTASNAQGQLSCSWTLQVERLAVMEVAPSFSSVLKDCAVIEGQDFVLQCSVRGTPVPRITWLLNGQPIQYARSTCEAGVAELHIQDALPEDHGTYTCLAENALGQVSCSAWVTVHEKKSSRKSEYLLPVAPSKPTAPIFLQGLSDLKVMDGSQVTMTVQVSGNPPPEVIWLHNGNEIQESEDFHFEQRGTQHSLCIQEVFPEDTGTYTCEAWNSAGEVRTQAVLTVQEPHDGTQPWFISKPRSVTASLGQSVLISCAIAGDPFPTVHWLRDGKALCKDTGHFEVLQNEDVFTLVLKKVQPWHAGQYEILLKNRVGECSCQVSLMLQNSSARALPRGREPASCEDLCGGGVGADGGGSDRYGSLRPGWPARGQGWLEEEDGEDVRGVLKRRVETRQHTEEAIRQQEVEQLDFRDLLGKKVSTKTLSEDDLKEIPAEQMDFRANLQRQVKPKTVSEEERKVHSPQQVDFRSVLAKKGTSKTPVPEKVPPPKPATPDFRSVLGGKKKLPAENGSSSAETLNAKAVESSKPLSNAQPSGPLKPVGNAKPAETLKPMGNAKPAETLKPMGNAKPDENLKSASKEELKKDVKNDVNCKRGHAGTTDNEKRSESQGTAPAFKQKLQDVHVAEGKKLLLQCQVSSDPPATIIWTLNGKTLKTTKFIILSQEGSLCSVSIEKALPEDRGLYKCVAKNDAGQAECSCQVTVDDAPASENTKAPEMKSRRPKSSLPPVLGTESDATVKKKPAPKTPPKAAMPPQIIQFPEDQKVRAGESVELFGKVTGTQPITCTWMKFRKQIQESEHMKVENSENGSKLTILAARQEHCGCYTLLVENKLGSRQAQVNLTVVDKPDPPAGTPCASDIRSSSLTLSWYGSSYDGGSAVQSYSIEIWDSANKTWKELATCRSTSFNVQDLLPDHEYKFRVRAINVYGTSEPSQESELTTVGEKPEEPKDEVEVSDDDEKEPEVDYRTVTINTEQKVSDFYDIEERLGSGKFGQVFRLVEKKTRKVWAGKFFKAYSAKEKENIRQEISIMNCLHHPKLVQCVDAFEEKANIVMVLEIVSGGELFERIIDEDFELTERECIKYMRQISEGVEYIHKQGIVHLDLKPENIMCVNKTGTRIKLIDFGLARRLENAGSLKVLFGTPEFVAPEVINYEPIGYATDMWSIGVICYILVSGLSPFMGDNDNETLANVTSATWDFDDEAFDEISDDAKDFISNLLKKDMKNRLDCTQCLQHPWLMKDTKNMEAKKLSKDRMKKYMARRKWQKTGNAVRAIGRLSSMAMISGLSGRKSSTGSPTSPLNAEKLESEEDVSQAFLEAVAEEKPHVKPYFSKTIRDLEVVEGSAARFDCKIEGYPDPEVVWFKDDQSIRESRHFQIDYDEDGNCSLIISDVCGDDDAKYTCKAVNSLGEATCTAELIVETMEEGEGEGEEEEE
Description: as §1

PCTK2 = target: T24, PCTK2 (Homo sapiens, UniProt Q00537); settings: PCTK2, 1 uM
T24 construct: purchased Ambit KINOMEscan (DiscoverX)
Description: as §1

PCTK3 = target: T25, PCTK3 (Homo sapiens, UniProt Q07002); settings: PCTK3, 1 uM
T25 construct: purchased Ambit KINOMEscan (DiscoverX)
Description: as §1

PIK3C2B = target: T26, PIK3C2B (Homo sapiens, UniProt O00750); settings: 1 uM
T26 construct: purchased Ambit KINOMEscan (DiscoverX)
Description: as §1

PKN2 = target: T27, PKN2 (Homo sapiens, UniProt Q16513); settings: PKN2, 1 uM
T27 construct: purchased Ambit KINOMEscan (DiscoverX)
Description: as §1

PLK4 = target: T28, PLK4 (Homo sapiens, UniProt O00444); settings: PLK4, 1 uM
T28 construct: purchased Ambit KINOMEscan (DiscoverX)
Description: as §1

PRKD1 = target: T29, PRKD1 (Homo sapiens, UniProt Q15139); settings: PRKD1, 1 uM
T29 construct: purchased Ambit KINOMEscan (DiscoverX)
Description: as §1

PRKX = target: T30, PRKX (Homo sapiens, UniProt P51817); settings: 1 uM
T30 construct: purchased Ambit KINOMEscan (DiscoverX)
T30 sequence (P51817 whole entry): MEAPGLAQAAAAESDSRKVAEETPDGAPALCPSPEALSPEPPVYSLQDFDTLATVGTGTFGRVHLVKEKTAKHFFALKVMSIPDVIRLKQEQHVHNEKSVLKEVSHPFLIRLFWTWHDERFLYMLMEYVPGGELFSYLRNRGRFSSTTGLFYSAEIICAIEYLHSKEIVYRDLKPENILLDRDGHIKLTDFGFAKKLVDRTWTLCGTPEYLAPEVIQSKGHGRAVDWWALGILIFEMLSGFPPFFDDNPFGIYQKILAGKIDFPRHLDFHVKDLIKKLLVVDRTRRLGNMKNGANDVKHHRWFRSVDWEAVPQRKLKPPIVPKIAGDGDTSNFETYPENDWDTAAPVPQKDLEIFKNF
Description: as §1

PYK2 = target: T31, PYK2 (Homo sapiens, UniProt Q14289); settings: PYK2, 1 uM
T31 construct: purchased Ambit KINOMEscan (DiscoverX)
Description: as §1

[1] = target: T32, RPS6KA4(Kin.Dom.1-N-terminal) (Homo sapiens, UniProt O75676); settings: 1 uM
T32 construct: RPS6KA4(Kin.Dom.1-N-terminal); purchased Ambit KINOMEscan (DiscoverX)
T32 sequence (O75676 1-371 limits assumed): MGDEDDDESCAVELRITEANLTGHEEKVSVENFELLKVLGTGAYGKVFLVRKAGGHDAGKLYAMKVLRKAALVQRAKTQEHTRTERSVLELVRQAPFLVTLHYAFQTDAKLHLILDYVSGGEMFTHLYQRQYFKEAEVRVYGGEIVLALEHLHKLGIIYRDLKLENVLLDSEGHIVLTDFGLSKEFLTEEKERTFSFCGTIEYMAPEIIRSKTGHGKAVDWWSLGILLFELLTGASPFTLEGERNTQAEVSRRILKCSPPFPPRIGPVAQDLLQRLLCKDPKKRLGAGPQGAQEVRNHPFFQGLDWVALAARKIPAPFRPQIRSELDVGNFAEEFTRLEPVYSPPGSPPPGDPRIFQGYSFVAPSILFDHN
Description: as §1

[2] = target: T33, RPS6KA4(Kin.Dom.2-C-terminal) (Homo sapiens, UniProt O75676); settings: 1 uM
T33 construct: RPS6KA4(Kin.Dom.2-C-terminal); purchased Ambit KINOMEscan (DiscoverX)
T33 sequence (O75676 372-772 limits assumed): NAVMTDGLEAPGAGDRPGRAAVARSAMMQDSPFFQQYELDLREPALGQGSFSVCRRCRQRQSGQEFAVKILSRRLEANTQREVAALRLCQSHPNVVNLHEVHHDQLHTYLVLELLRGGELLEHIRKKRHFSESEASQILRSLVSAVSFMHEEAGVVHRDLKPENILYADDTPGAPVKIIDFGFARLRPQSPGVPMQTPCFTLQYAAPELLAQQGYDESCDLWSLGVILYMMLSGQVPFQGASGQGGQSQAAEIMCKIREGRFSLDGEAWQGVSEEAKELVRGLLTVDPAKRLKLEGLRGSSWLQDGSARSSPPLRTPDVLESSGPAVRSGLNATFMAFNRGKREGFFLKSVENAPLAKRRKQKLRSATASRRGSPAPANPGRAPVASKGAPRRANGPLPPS
Description: as §1

SNARK = target: T34, SNARK (Homo sapiens, UniProt Q9H093); settings: 1 uM
T34 construct: purchased Ambit KINOMEscan (DiscoverX)
Description: as §1

SYK = target: T35, SYK (Homo sapiens, UniProt P43405); settings: for % binding compared to no inhibitor control: 1 uM
T35 construct: purchased Ambit KINOMEscan (DiscoverX)
Description: as §1

TAO1 = target: T36, TAO1 (Homo sapiens, UniProt Q9UL54); settings: TAO1, 1 uM
T36 construct: purchased Ambit KINOMEscan (DiscoverX)
Description: as §1

TYRO3 = target: T37, TYRO3 (Homo sapiens, UniProt Q06418); settings: TYRO3, 1 uM
T37 construct: purchased Ambit KINOMEscan (DiscoverX)
Description: as §1

VEGFR2 = target: T38, VEGFR2 (Homo sapiens, UniProt P35968); settings: VEGFR2, 1 uM
T38 construct: purchased Ambit KINOMEscan (DiscoverX)
Description: as §1

YANK2 = target: T39, YANK2 (Homo sapiens, UniProt Q9NY57); settings: YANK2, 1 uM
T39 construct: purchased Ambit KINOMEscan (DiscoverX)
Description: as §1

| Compound | % binding compared to no inhibitor control (ALK) [%] | % binding compared to no inhibitor control (CAMK4) [%] | % binding compared to no inhibitor control (CIT) [%] | % binding compared to no inhibitor control (DCAMKL1) [%] | % binding compared to no inhibitor control (DLK) [%] | % binding compared to no inhibitor control (DYRK1A) [%] | % binding compared to no inhibitor control (DYRK1B) [%] | % binding compared to no inhibitor control (EPHB1) [%] | % binding compared to no inhibitor control (ERK8) [%] | % binding compared to no inhibitor control (FGFR3(G697C)) [%] | % binding compared to no inhibitor control (FLT3(N841I)) [%] | % binding compared to no inhibitor control (FLT4) [%] | % binding compared to no inhibitor control (GRK7) [%] | % binding compared to no inhibitor control (IKK-beta) [%] | % binding compared to no inhibitor control (JNK1) [%] | % binding compared to no inhibitor control (KIT(V559D,V654A)) [%] | % binding compared to no inhibitor control (LTK) [%] | % binding compared to no inhibitor control (MARK1) [%] | % binding compared to no inhibitor control (MARK3) [%] | % binding compared to no inhibitor control (MEK1) [%] | further results |
| --- | --- | --- | --- | --- | --- | --- | --- | --- | --- | --- | --- | --- | --- | --- | --- | --- | --- | --- | --- | --- | --- |
| COc1ccc(-c2cc3nccn3c(Nc3ncccc3C(N)=O)n2)cc1OC.Cl.Cl [BAY61-3606, 2-[7-(3,4-dimethoxyphenyl)-imidazo [1,2-c]pyrimidin-5-ylamino] nicotinamide dihydrochloride, reference compound] | 84 | 100 | 0.4 | 93 | 87 | 24 | 81 | 90 | 92 | 83 | 1.5 | 100 | 59 | 37 | 18 | 71 | 46 | 100 | 100 | 100 | % binding compared to no inhibitor control (MEK6): 40%; % binding compared to no inhibitor control (MLK2): 91%; % binding compared to no inhibitor control (MYLK): 55%; % binding compared to no inhibitor control (PCTK2): 100%; % binding compared to no inhibitor control (PCTK3): 92%; % binding compared to no inhibitor control (PIK3C2B): 60%; % binding compared to no inhibitor control (PKN2): 34%; % binding compared to no inhibitor control (PLK4): 35%; % binding compared to no inhibitor control (PRKD1): 39%; % binding compared to no inhibitor control (PRKX): 75%; % binding compared to no inhibitor control (PYK2): 94%; % binding compared to no inhibitor control [1]: 32%; % binding compared to no inhibitor control [2]: 60%; % binding compared to no inhibitor control (SNARK): 32%; % binding compared to no inhibitor control (SYK): 6.1%; % inhibition ATP binding (SYK; KINOMEscan, 1 μM): 93.9%; % binding compared to no inhibitor control (TAO1): 100%; % binding compared to no inhibitor control (TYRO3): 94%; % binding compared to no inhibitor control (VEGFR2): 94%; % binding compared to no inhibitor control (YANK2): 86% |
| COc1ccccc1Nc1nc(-c2ccc(OC)c(OC)c2)cc2nccn12 [BAY derivative 6] | 52 | 100 | 95 | 87 | 100 | 100 | 57 | 100 | 98 | 70 | 53 | 86 | 100 | 89 | 95 | 100 | 30 | 100 | 100 | 100 | % binding compared to no inhibitor control (MEK6): 97%; % binding compared to no inhibitor control (MLK2): 100%; % binding compared to no inhibitor control (MYLK): 100%; % binding compared to no inhibitor control (PCTK2): 100%; % binding compared to no inhibitor control (PCTK3): 100%; % binding compared to no inhibitor control (PIK3C2B): 100%; % binding compared to no inhibitor control (PKN2): 91%; % binding compared to no inhibitor control (PLK4): 100%; % binding compared to no inhibitor control (PRKD1): 100%; % binding compared to no inhibitor control (PRKX): 73%; % binding compared to no inhibitor control (PYK2): 100%; % binding compared to no inhibitor control [1]: 74%; % binding compared to no inhibitor control [2]: 86%; % binding compared to no inhibitor control (SNARK): 89%; % binding compared to no inhibitor control (SYK): 48%; % binding compared to no inhibitor control (TAO1): 96%; % binding compared to no inhibitor control (TYRO3): 67%; % binding compared to no inhibitor control (VEGFR2): 100%; % binding compared to no inhibitor control (YANK2): 100% |
